Activity calls are given as the source filed them.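 How the source made its calls: active means growth-inhibition EC50 no more than tenfold above the top tested dose; inconclusive means flat fit between 30% and 70% inhibition, or unreliable fit; inactive means EC50 more than tenfold above the top tested dose.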
Each compound was assayed on E. coli NEB5alpha growth, BacTiter-Glo luminescence, 4 h (assay: antibacterial activity against E. coli NEB5alpha – luminescence, counter-screen for MEX-5/POS-1 RNA-binding inhibitor project, dose response (AID 1959);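 further: pUC19-transformed ampicillin-resistant cells grown in LB with ampicillin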).

Row | Compound | EC50
1 | CCN1CCN(C(=O)c2ccc3c(=O)n(Cc4ccccc4OC)c(=S)[nH]c3c2)CC1 | > 11 µM (inactive)
2 | Cc1cccc2cc3c(N)c(C(=O)Nc4ccc(N5CCOCC5)cc4)sc3nc12 | > 11 µM (inactive)
3 | O=C(C1=C(O)C(=O)N(c2ncccn2)C1c1cccs1)c1ccco1 (stereo not drawn) | > 11 µM (inactive)
4 | CCN(CC)S(=O)(=O)c1ccc(N=Cc2c(C)c(C#N)c(=O)n(C)c2O)cc1 | > 11 µM (inactive)
5 | CCOC(=O)N1CCC(NC(=O)C(Cc2ccccc2)NC(=O)C2CCCCC2)CC1 (stereo not drawn) | > 11 µM (inactive)
6 | O=C1C([N+](=O)[O-])=C(O)c2cccc3cccc1c23 | > 11 µM (inactive)
7 | CCOc1cc(/C=C2/C(=O)ON=C2C)ccc1OCc1ccccc1F | > 11 µM (inactive)
8 | Cc1cc(/C=C2\C(=O)NC(=O)N(c3ccc(F)cc3)C2=O)c(C)n1-c1cccc(C(=O)O)c1 | > 11 µM (inactive)
9 | CC1CCN(C(=O)CCN2C(=O)/C(=C/c3cccs3)SC2=S)CC1 | > 11 µM (inactive)
10 | O=C(O)CCc1ccc(-c2ccccc2)n1-c1ccc(C(=O)O)cc1 | > 11 µM (inactive)
11 | CC1(C)CC(=O)C2=C(C1)OC(N)=C(C#N)C2c1ccc(OC(=O)N2CCOCC2)cc1 (stereo not drawn) | > 11 µM (inactive)
12 | Oc1ccc(-c2csc(Nc3ccccn3)n2)cc1O | > 11 µM (inactive)
13 | O=C(O)c1ccc2c(c1)[C@@H]1C=CC[C@@H]1[C@H](c1ccccn1)N2 | > 11 µM (inactive)
14 | O=C(N/N=C/c1c(O)ccc2ccccc12)Nc1ccccc1 | > 11 µM (inactive)
15 | O=C(N/N=C/c1ccc(-c2cccc([N+](=O)[O-])c2)o1)c1ccc([N+](=O)[O-])cc1 | > 11 µM (inactive)
16 | Cc1nc(S/C(=C/c2ccc(OCc3ccc(C(=O)O)cc3)cc2)C(=O)O)n[nH]1 | > 11 µM (inactive)
17 | CCOc1cc(/C=C2\SC(=Nc3ccc(CC)cc3)NC2=O)ccc1OCC(=O)O | > 11 µM (inactive)
18 | O=C(CN1C(=O)C2CC=C(Cl)CC2C1=O)NCc1ccccc1 (stereo not drawn) | > 11 µM (inactive)
19 | Cc1cc(C(=O)O)ccc1-n1c(C)cc(/C=C(/C#N)C(=O)Nc2ccccc2)c1C | > 11 µM (inactive)
20 | Cc1ncc(CO)c(/C=N/NC(=O)c2cc(O)c(O)c(O)c2)c1O | > 11 µM (inactive)
21 | Oc1ccc(/C=N/NC(=S)Nc2cccnc2)c(O)c1O | > 11 µM (inactive)
22 | CCCCc1ccc(NC(=O)CSC2=NN3CCCC(=O)N=C3S2)cc1 | > 11 µM (inactive)
23 | Cc1nn(-c2ccccc2)c(N2CCCC2)c1/C=N/NC(=O)c1cc(-c2cccnc2)nc2ccccc12 | > 11 µM (inactive)
24 | CCN1C=CC2=C(C#N)C(N)C(C#N)(C#N)C(c3ccccc3C(F)(F)F)C2C1 (stereo not drawn) | > 11 µM (inactive)

Row | Compound | EC50
25 | NS(=O)(=O)c1ccc(-c2ccc(/C=C3\SC(=O)NC3=O)o2)cc1 | > 11 µM (inactive)
26 | O=c1[nH]c(=O)n(CCc2ccc(F)cc2)c(O)c1C=NCCCn1ccnc1 | > 11 µM (inactive)
27 | Cc1[nH]nc(NNC(=O)c2ccccc2)c1[N+](=O)[O-] | > 11 µM (inactive)
28 | CC(C)OC(=O)C(C#N)c1nc2ccccc2nc1N1CCCC1 (stereo not drawn) | > 11 µM (inactive)
29 | COc1cc2c(cc1OC)C(c1ccc(-c3ccc(Cl)cc3Cl)o1)=NCC2 | > 11 µM (inactive)
30 | O=C(NCCN1CCOCC1)c1cccn2c(=O)c3c4c(sc3nc12)CCCC4 | > 11 µM (inactive)
31 | CCOC(=O)/C=c1\s/c(=C\c2ccc3cc(OC)ccc3c2)c(=O)n1CC(=O)NCC1CCCO1 (stereo not drawn) | > 11 µM (inactive)
32 | COc1ccc(C(=O)Nc2cc(C(C)=O)c(/C=C/N(C)C)oc2=O)cc1 | > 11 µM (inactive)
33 | CCOC(=O)CSc1nc2ccc(Nc3nc(N4CCOCC4)nc(N4CCOCC4)n3)cc2s1 | > 11 µM (inactive)
34 | CCn1nc(C)c(/C=C2\CCCC3=C2OC(N)=C(C#N)C3c2c(C)nn(CC)c2C)c1C (stereo not drawn) | > 11 µM (inactive)
35 | COc1ccc2nc3ccccc3nc2c1NC(=O)c1ccccc1Cl | > 11 µM (inactive)
36 | O=C(c1ccc(Br)o1)N1CCN=C1SCc1cccc(F)c1 | > 11 µM (inactive)
37 | CSc1nnc(N2C(=O)C(O)=C(C(=O)c3ccco3)C2c2ccc(F)cc2)s1 (stereo not drawn) | > 11 µM (inactive)
38 | COc1ccc(CNC(=O)c2cnc3cc(C)ccn3c2=O)cc1 | > 11 µM (inactive)
39 | C=CCOc1cccc(C2C(C(=O)c3ccc(C)o3)=C(O)C(=O)N2c2nnc(C)s2)c1 (stereo not drawn) | > 11 µM (inactive)
40 | CCOC(=O)c1c(NC(=O)CC2Nc3ccccc3NC2=O)sc(C)c1C (stereo not drawn) | > 11 µM (inactive)
41 | Cc1c(C(=O)O)cccc1-n1c(C)cc(/C=N/Nc2ccc([N+](=O)[O-])cn2)c1C | > 11 µM (inactive)
42 | Cc1cc(/C=C(/C#N)c2nc3ccccc3[nH]2)c(C)n1-c1cc(C(=O)O)cc(C(=O)O)c1 | > 11 µM (inactive)
43 | CSc1nc(=S)c2[nH]c(=S)[nH]c2[nH]1 | > 11 µM (inactive)
44 | O=[N+]([O-])c1ccc(/C=N/n2cnc3ccccc32)s1 | > 11 µM (inactive)
45 | COc1ccc(C(=O)Nc2nc(-c3ccc([N+](=O)[O-])cc3)c(-c3ccccc3)s2)cc1 | > 11 µM (inactive)
46 | CCc1ccc(C(=O)NNC(=O)c2ccc(=O)n(C)n2)cc1 | > 11 µM (inactive)
47 | COc1cc(/C=C2/N=C(c3ccccc3)OC2=O)c(F)cc1OCc1ccccc1 | > 11 µM (inactive)
48 | COc1ccc(C2C(C(=O)c3cccs3)=C(O)C(=O)N2c2nnc(C)s2)cc1OC (stereo not drawn) | > 11 µM (inactive)

Row | Compound | EC50
49 | CCCCC1=CC2=C(c3ccco3)C(=O)C(C)(OC(=O)c3ccc(OC)cc3)C(=O)C2=CN1CCN1CCOCC1 (stereo not drawn) | > 11 µM (inactive)
50 | CCOC(=O)c1cc(-c2ccc(/C=C3/C(=O)NC(=O)C(C#N)=C3C)o2)ccc1Cl | > 11 µM (inactive)
51 | CCOC(=O)C1Nc2ccc(OC(F)(F)F)cc2C2C=CCC12 (stereo not drawn) | > 11 µM (inactive)
52 | CCCCCCn1c(O)c(C=NCCCn2ccnc2)c(=O)[nH]c1=O | > 11 µM (inactive)
53 | CC1N(C)c2cccc3cccc(c23)N1C | > 11 µM (inactive)
54 | COc1ccccc1NC(=O)c1sc2nc(Cc3ccccc3)cc(C(F)(F)F)c2c1N | > 11 µM (inactive)
55 | O=C(O)c1[nH]c2ccccc2c1C(c1cc(Cl)cc([N+](=O)[O-])c1O)c1c(C(=O)O)[nH]c2ccccc12 | > 11 µM (inactive)
56 | Cc1ccccc1Nc1nc(Cl)c(C=O)s1 | > 11 µM (inactive)
57 | CCOCCCn1c(=NC(=O)c2ccc(OC)c(OC)c2)c(C#N)cc2c(=O)n3cccc(C)c3nc21 | > 11 µM (inactive)
58 | Cc1c(N)cc(N)cc1C(=O)O | > 11 µM (inactive)
59 | Cc1ccc(C2C(C(=O)c3ccco3)=C(O)C(=O)N2c2nnc(C)s2)cc1 (stereo not drawn) | > 11 µM (inactive)
60 | COc1cc2c(cc1C1C(C#N)=C(N)OC3=C1C(=O)CC(C)(C)C3)OCO2 (stereo not drawn) | > 11 µM (inactive)
61 | Cc1cc(=O)n2[nH]c(=O)c(N=Nc3ccccc3)c2[nH]1 | > 11 µM (inactive)
62 | Cc1cc2nc3ccc(=[N+](C)C)cc-3sc2cc1N | > 11 µM (inactive)
63 | COc1ccc(OC)c(C2=C/C(=C/c3ccccn3)C(=O)O2)c1 | > 11 µM (inactive)
64 | N#Cc1c(NC(=O)/C=C/C(=O)O)sc2c1CCN(Cc1ccccc1)C2 | > 11 µM (inactive)
65 | CN1Cc2c(c(C#N)c(N)n(C)c2=S)CC1(C)C | > 11 µM (inactive)
66 | CCOC(=O)c1cnc(-n2nc(C)cc2C)nc1NNc1nc(C)cc(C)n1 | > 11 µM (inactive)
67 | Nc1c(C(=O)c2ccc(Cl)cc2)sc2nsc(SCCN3CCOCC3)c12 | > 11 µM (inactive)
68 | Cc1ccc([N+](=O)[O-])cc1S(=O)(=O)Nc1ccc(O)c(Sc2ncn[nH]2)c1 | > 11 µM (inactive)
69 | Cc1cc(/C=C2\C(=O)NC(=O)N(c3ccccc3)C2=O)c(C)n1-c1ccc(C(=O)O)c(Cl)c1 | > 11 µM (inactive)
70 | COc1ccc(C2C(C(=O)c3ccco3)=C(O)C(=O)N2c2nnc(C)s2)cc1OC (stereo not drawn) | > 11 µM (inactive)
71 | COc1c(O)cccc1[C@H](O)C1CCN(CCc2ccc(F)cc2)CC1 | > 11 µM (inactive)
72 | Cc1cc(C)cc(N2C(=O)NC(=O)/C(=C\c3cc(C)n(C)c3C)C2=O)c1 | > 11 µM (inactive)

Row | Compound | EC50
73 | NC1=CC(=O)c2cccc3cccc1c23 | > 11 µM (inactive)
74 | Cn1c(N=Nc2ccc(N3CCOCC3)cc2)[n+](C)c2ccccc21 | > 11 µM (inactive)
75 | COc1ccc(CC(=O)NNC2=Nc3cccc4cccc2c34)cc1 | > 11 µM (inactive)
76 | COc1ccccc1/C=C1/SC(=S)N(CCC(=O)Nc2cccnc2)C1=O | > 11 µM (inactive)
77 | COc1ccc(C(=O)Nc2nnc(CC(=O)N/N=C/c3ccc(O)cc3O)s2)cc1 | > 11 µM (inactive)
78 | CCOP(=O)(OCC)C(Nc1cccc([N+](=O)[O-])c1)c1ccccc1 (stereo not drawn) | > 11 µM (inactive)
79 | Cc1ccc2[nH]c(=O)c(CN(CCO)Cc3nnnn3CCc3ccccc3)cc2c1 | > 11 µM (inactive)
80 | O=C(N/N=C\C1C(=O)NC(=S)N(c2ccccc2)C1=O)c1ccc(O)cc1 (stereo not drawn) | > 11 µM (inactive)
81 | CCOc1ccc(-n2c(O)c(C=Nc3ccc(N(CC)CC)cc3)c(=O)[nH]c2=O)cc1 | > 11 µM (inactive)
82 | CCNC(=S)N(C)CCc1cc2c(c(OC)c1C=C1C(=O)N(C)C(=O)N(C)C1=O)OCO2 | > 11 µM (inactive)
83 | COc1cc([N+](=O)[O-])cc(/C=N/NC(=O)CC#N)c1O | > 11 µM (inactive)
84 | CC1(C)CCCN(C(=O)c2coc(=O)c(Br)c2)C1 | > 11 µM (inactive)
85 | COC(=O)CCC(=O)OC1(C)C(=O)C2=CN(CCCOC(C)C)C(c3ccc(OC)cc3)=CC2=C(Br)C1=O (stereo not drawn) | > 11 µM (inactive)
86 | CN1C(=O)C(=Cc2cn(CC(=O)N3CCCCC3)c3ccccc23)C(=O)N(C)C1=O | > 11 µM (inactive)
87 | COc1cc2[nH]c(C(=O)NN)c(N)c2cc1OC | > 11 µM (inactive)
88 | CC1(C)CC(=O)C2=C(C1)OC(N)=C(C#N)C2c1ccc2c(c1)OCO2 (stereo not drawn) | > 5.6 µM (inactive)
89 | CC1(OC(=O)c2ccco2)C(=O)C=C2C=C(c3ccc(C#N)cc3)OC=C2C1=O (stereo not drawn) | > 11 µM (inactive)
90 | CCN(CC)C(=O)CSc1nnc2nnc3cc(OC)ccc3n12 | > 11 µM (inactive)
91 | N#Cc1c(N)nc(SCc2ccccc2)c(C#N)c1-c1ccco1 | > 11 µM (inactive)
92 | O=S(=O)(c1cccc(-c2csc(-c3cccnc3)n2)c1)N1CCOCC1 | > 11 µM (inactive)
93 | CCOC(=O)N1CCN(/C=C(\C#N)c2nc3ccccc3s2)CC1 | > 11 µM (inactive)
